# Paper PMC8453901, “GLPG1205, a GPR84 Modulator: Safety, Pharmacokinetics, and Pharmacodynamics in Healthy Subjects” (Clinical Pharmacology in Drug Development, 2021)
# “Also recorded” adds a separate entry of the source.
# Legend:
# [1] = Study 2 part 2: pharmacokinetics with 250-mg loading dose then 50 mg once daily; format: in vivo, human
# Procedure: During study 2, GLPG1205 50 mg or matching placebo was administered as capsules in the morning 30 minutes after the start of a standard breakfast. Subjects were kept in‐house from the evening of day –1 to ≈26 hours after the first dose (day 2), and from the evening of day 13 until day 15. Administration of the study drug was performed daily at the clinical pharmacology unit. Subjects returned for a follow‐up visit at day 35.
# In part 1, 24 healthy male subjects were matched into 3 cohorts based on body weight: Cohort A comprised 8 subjects aged 65–74 years, inclusive; cohort B comprised 8 subjects aged ≥75 years (1:1 weight matched with cohort A subjects [± 5 kg]); and cohort C comprised 8 subjects aged 18 to 50 years, inclusive (1:1 weight matched with cohort A subjects [± 5 kg]). All cohorts received GLPG1205 50 mg once daily or matching placebo, in a 3:1 ratio, for 14 days. In the open‐label second part of study 2, 8 subjects (cohort D) aged 65 to 74 years, inclusive, were included to characterize the PK profile after a loading dose of GLPG1205 250 mg on day 1 followed by multiple doses of GLPG1205 50 mg once daily from day 2 to day 14.
# In the SAD part of study 1, blood samples (2 mL) for PK assessments were obtained before dosing and at multiple time points on the day of study drug administration (before dosing and 0.5, 1, 2, 4, 6, 8, and 12 hours after dosing) and at 24, 48, and 72 hours after dosing. The predose sample for the next dose level was also used in PK analysis (168 hours after dosing). […] In the MAD part of study 1, blood samples (2 mL) were obtained on days 1, 2, 4, 5, 6, 8, 10, 12, 14, 15, 16, 17, and 18 and at follow‐up (approximately 7 to 10 days after the last dose). These PK blood samples were taken after dosing (1, 2, 4, 6, 8, 12, and 24 hours) on day 1; before dosing on days 4, 6, 8, and 10; and after dosing (1, 2, 4, 6, 8, 12, 24, 72, and 96 hours) on day 14. The following additional PK blood samples were also taken: cohort C, before dosing on day 5; and cohorts D and E, before dosing on day 12. Urine samples were obtained from fractions collected over 6‐ or 12‐hour periods after dosing on days –1, 1, 2, 13, 14, and 15; samples obtained on days –1 and 13 were for cytochrome P450 (CYP) induction analysis only. In study 2, blood samples (2 mL) were obtained on days 1, 2, 5, 7, 10, 14, 15, 17, and 20 and at follow‐up (approximately 21 days after end of study medication administration). Blood samples were taken before dosing and at 1, 2, 4, 6, 8, 12, and 24 hours after drug administration on days 1 and 14 and before dosing on other sampling days.
# GLPG1205 plasma concentrations were determined using a validated liquid chromatography with tandem mass spectrometry method. After a protein precipitation with methanol, a chromatographic separation was performed on a Kinetex C18 column (50×3.0 mm, 2.6 μm; Phenomenex, Torrance, California) set at 40°C by using a Nexera high‐performance liquid chromatography (HPLC) system (Shimadzu, Kyoto, Japan) or an Infinity HPLC system (Agilent Technologies, Diegem, Belgium) in isocratic elution mode. A QTRAP6500, QTRAP4000, or API4000 mass spectrometer (AB Sciex, Nieuwerkerk aan den Ijssel, The Netherlands) equipped with a TurboIonSpray probe operated in the multiple reaction monitoring in positive mode was used for quantification. The calibration curves in plasma were linear over the range of 1 to 1000 ng/mL with 1/x^2 as weighting factor. The limit of quantification of the assay in the plasma samples was set at 1 ng/mL.
# PK calculations were performed using Phoenix WinNonlin 6.2 (Pharsight Corporation, Palo Alto, California). […] AUC0‐inf was calculated from the area under the plasma concentration‐time curve from time 0 until the time corresponding with the last observed quantifiable concentration + Ct/λz, where Ct was the last observed quantifiable concentration and λz the first‐order terminal rate constant. […]
# CYP2C8 = system: CYP2C8; parameters: method as in data on file at Galapagos; details: in vitro; ref data on file at Galapagos; cited from earlier work
# CYP3A4 = CYP3A4 induction by 6β-OH-cortisol/cortisol ratio in urine; format: in vivo, human; details: 50 mg, 100 mg and 200/150 mg once daily; days -1 and 13
# Procedure: The potential of CYP3A4 induction was assessed by means of the ratio of 6β‐OH‐cortisol to cortisol in urine.[10], [11], [12], [13], [14] Cortisol concentrations in urine were determined by using a radioimmunoassay method based on competition between labeled antigens and antigens on the specific sites of the antiserum coated on the tubes. At the end of the incubation period, the liquid in the tubes was removed by aspiration and the radioactivity (^125I‐cortisol) was measured using a gamma counter (Packard Cobra II auto‐gamma counter; Packard Instrument Co Inc, Meriden, Connecticut). […] The best curve was determined by the polynomial second‐order equation. The limit of quantification of the cortisol assay for the urine samples was set at 10 ng/mL.
# 6β‐OH‐cortisol concentrations in urine were determined by using a 2‐step, quantitative competitive enzyme immunoassay technique. […] The calibration equation was computed using SoftMax Pro software (Molecular Devices, Sunnyvale, California) by plotting the log of 6β‐OH‐cortisol concentrations versus the A/Ao (when A was standard or sample 6β‐OH‐cortisol absorbance and Ao was the standard 0 absorbance). The best line was determined by using the 4‐parameter logistic model. The limit of quantification of the 6β‐OH‐cortisol assay for the urine samples was set at 50 pg/mL. […]
# CYP2C9 = system: CYP2C9; parameters: method as in data on file at Galapagos, 8, 9; details: 100 mg once daily, healthy male subjects; ref data on file at Galapagos, 8, 9; cited from earlier work
# CYP2C19 = system: CYP2C19; parameters: method as in data on file at Galapagos; details: in vitro; ref data on file at Galapagos; cited from earlier work
structure (smiles),measurement,setting,value
"O=c1nc(OC[C@@H]2COCCO2)cc2n1CCc1cc(C#CC3CC3)ccc1-2 [GLPG1205, 9‐cyclopropylethynyl‐2‐((S)‐1‐[1,4]dioxan‐2‐ylmethoxy)‐6,7‐dihydropyrimido[6,1‐a]isoquinolin‐4‐one]",steady-state exposure with loading dose vs cohort A without,[1]; 250-mg loading dose + 13 days 50 mg once daily vs 14 days 50 mg once daily,no difference in steady‐state exposure
same,quantifiability in plasma after last dose,"[1]; 144 hours after the last dose on day 14, all subjects",quantifiable in plasma up to day 20
same,time of maximal mean GLPG1205 concentration,[1]; after 250-mg loading dose on day 1,12 hours after dosing
same,day by which steady state in plasma concentration was reached,[1]; after the loading dose of 250 mg,≤ 2 days
same,Rac,"[1]; cohort D 65-74 y, 250-mg loading dose then 50 mg once daily, day 14, mean (CV%)",1.35 (22.8)
same,"Rac point estimate (CI), cohort D vs cohort A","[1]; day 14, ratio of cohort D relative to cohort A expressed as a percentage",<.0001 22.11 (18.46‐26.48)
same,subjects with GLPG1205 below the limit of quantification,"[1]; follow-up visit day 35, 504 hours after the last dose",5 of 8
same,Cmax,"[1]; human, plasma, oral, cohort D 65-74 y, 250-mg loading dose then 50 mg once daily, day 14, mean (CV%)",2630 ng/mL
same,AUC(0-inf),"[1]; human, plasma, oral, cohort D 65-74 y, 250-mg loading dose then 50 mg once daily, day 14, mean (CV%), N = 6",250 µg·h/mL
same,half-life,"[1]; human, plasma, oral, cohort D 65-74 y, 250-mg loading dose then 50 mg once daily, day 14, mean (CV%), N = 7, read-out: t1/2,λz (converted)",55.4 h
same,AUC(0-t),"[1]; human, plasma, oral, cohort D 65-74 y, 250-mg loading dose then 50 mg once daily, day 14, mean (CV%), read-out: AUC0–24h",53.7 µg·h/mL
same,concentration at 24 h,"[1]; human, plasma, oral, cohort D 65-74 y, 250-mg loading dose then 50 mg once daily, day 14, mean (CV%), read-out: C24h",2360 ng/mL
same,concentration at 504 h,"[1]; human, plasma, oral, day 35, 504 hours after the last dose, subjects in whom still quantifiable, read-out: plasma GLPG1205 level at follow-up",2.01 to 21.6 ng/mL
same,time to reach steady-state exposure,[1]; single 250-mg loading dose,1 days
same,inhibition of CYP2C8,CYP2C8,weak inhibition
same,6β‐OH‐cortisol/cortisol ratio in urine,CYP3A4,No significant day and dose effects; also recorded: did not impact
same,effect on exposure of CYP2C9,CYP2C9,did not affect the exposure
same,inhibition of CYP2C19,CYP2C19,weak inhibition
